Values belong to the molecule of their own block, whether it stands above or below them.
Assays:
D(1A) dopamine receptor = D(1A) dopamine receptor (Homo sapiens, UniProt P21728)
Bile acid receptor [1] = target: T1, Bile acid receptor (Homo sapiens, UniProt Q96RI1); format: functional
T1 sequence (Q96RI1 whole entry): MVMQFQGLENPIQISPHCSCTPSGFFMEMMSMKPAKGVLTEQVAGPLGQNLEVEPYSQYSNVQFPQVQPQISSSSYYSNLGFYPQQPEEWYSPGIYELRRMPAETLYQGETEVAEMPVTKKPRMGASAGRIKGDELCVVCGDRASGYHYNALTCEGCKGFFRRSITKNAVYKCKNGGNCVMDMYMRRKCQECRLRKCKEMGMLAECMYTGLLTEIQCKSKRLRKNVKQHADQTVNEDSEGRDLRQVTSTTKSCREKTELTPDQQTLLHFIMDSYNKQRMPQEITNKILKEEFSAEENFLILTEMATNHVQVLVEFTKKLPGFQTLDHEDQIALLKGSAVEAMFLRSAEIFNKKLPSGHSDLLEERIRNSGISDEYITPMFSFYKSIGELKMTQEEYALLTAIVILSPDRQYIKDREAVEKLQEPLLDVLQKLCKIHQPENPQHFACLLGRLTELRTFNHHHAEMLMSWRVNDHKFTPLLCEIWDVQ

Bile acid receptor [2] = target: T1, Bile acid receptor; format: functional; remark: listed apart in the source
[3] = target: 5-hydroxytryptamine receptor 2B (Homo sapiens, UniProt P41595)
Note: assay procedure not described here.

5-hydroxytryptamine receptor 2B, sequence (P41595 whole entry): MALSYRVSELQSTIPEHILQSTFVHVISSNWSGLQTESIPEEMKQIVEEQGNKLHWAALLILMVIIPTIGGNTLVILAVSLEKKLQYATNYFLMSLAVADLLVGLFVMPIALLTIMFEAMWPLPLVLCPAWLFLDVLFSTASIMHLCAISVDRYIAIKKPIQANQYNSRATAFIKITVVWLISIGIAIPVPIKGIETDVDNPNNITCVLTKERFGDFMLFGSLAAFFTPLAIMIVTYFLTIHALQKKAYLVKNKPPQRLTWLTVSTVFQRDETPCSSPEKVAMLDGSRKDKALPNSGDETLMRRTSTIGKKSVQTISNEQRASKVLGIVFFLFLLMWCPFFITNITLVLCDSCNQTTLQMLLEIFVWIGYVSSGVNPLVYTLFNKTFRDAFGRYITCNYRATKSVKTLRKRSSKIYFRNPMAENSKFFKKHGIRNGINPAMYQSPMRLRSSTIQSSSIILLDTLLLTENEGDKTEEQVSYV
D(1A) dopamine receptor, sequence (P21728 whole entry): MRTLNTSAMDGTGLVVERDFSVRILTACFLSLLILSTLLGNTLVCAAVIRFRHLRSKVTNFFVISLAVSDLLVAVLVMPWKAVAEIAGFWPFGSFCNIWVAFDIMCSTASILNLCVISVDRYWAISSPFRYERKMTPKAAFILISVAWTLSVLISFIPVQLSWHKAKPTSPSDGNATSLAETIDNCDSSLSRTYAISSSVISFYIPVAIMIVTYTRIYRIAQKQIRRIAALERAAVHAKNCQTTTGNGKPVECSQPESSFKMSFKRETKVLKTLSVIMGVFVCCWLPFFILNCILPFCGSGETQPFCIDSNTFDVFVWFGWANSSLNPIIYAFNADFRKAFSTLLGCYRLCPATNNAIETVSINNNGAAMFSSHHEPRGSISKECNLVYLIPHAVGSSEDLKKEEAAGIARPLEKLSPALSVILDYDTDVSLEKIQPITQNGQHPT

SMILES: COc1cc2nccc(Oc3ccc(NC(=O)C4(C(=O)Nc5ccc(F)cc5)CC4)cc3)c2cc1OC [CABOZANTINIB]
AC50 (D(1A) dopamine receptor): > 30 µM

AC50 (Bile acid receptor [1]): > 30 µM | AC50 (Bile acid receptor [2]): > 30 µM
SMILES: CC(C(=O)O)c1ccc2c(c1)[nH]c1ccc(Cl)cc12 (centres undefined) [CARPROFEN]

AC50 [3]: 0.976 µM
SMILES: C=C[C@H]1C[N@@]2CC[C@H]1C[C@@H]2[C@@H](O)c1ccnc2ccc(OC)cc12 [QUINIDINE]

From ChEMBL document CHEMBL5291721, “A preclinical secondary pharmacology resource illuminates target-adverse drug reaction associations of marketed drugs” (Nat Commun, 2023)
